Laboratory results published in patent US7261906B2, “Anti-cancer therapy agent of arsenic hexoxide (As4O6) of a natural chemical substance and its pharmaceutical composition” (priority 1998, dated 2007).
Where “and” joins values, the source holds several entries; their conditions need not be identical. Equal values may be shown once. Marks after values point to notes of the source that are not given here.

Experiments:
[1] = test system: cloned tumor cells of mice and human beings; assay: Direct cytotoxicity of HD-2 relative to cisplatin over the clones; format: cell-based; details: 48 hours of incubation, mean over clones of Table 5
Method: (§1) Cloned tumor cells of P388 leukemia, L1210 leukemia, L5178Y lymphoma, Colon26-M3.1 carcinoma, and B16-BL6 melanoma, from mice, and K562 leukemia, liver carcinoma HEP-G2, Hs578T breast cancer, AN-3-CA adenocarcinoma, DLD colon carcinoma, and HeLa epitheloid carcinoma, from human beings, were cultured in EMM, DMEM, or RMPI-1640 culture media containing 7.5% fetal bovine serum (FBS), as described in ATCC manual. […] Tumor cells in test wells were incubated in 5% CO2 incubator at 37° C. for 2 days.

3T3-fibroblast cells = assay: Cytotoxicity in 3T3-fibroblast cells, time course (XTT method); format: cell-based, murine
Method: as §1
For further study of the cytotoxicity of each substance on cloned tumor cells, 3T3-fibroblast cells were cultured in test wells as described in experiment 1.

[2] = test system: colon26-M3.1 carcinoma cells; assay: Inhibitory effect of intravenously-administered HD-2 on cancer metastasis (lung); format: in vivo, mice
Method: (§2) B16-BL6 melanoma cells or colon26-M3.1 carcinoma cells were inoculated into mice and number of metastatic tumor masses appearing in lungs was counted. […] The peak activity was observed a: 1-mg dose with very high anticancer efficacy (86%). […] This indicated oral administration of HD-2 was quite effective for treatment of established cancer.
In this experiment, HD-2 was administered intravenously with dosage less than 500 mg/kg body weight per day.

[3] = Subacute toxicity, oral administration once a day for 4 weeks; format: in vivo, Rats (Sprague Dawley strain); details: for ALT / ALB / AST / BUN / CHOL / CREAT / Ca / GLU / TB / TG / TP: female rats
Method: The subacute toxicity of oral administration of HD-2 was evaluated according to toxicity assessment criteria described in Article 96-8 of Notice on rood and Drug Safety (Apr. 16, 1994). Rats (Sprague Dawley . strain) were used for experiments, as was the case for acute toxicity experiments. […]
Following items were observed during the period of study. • 1) General symptoms: General symptoms, such as anorchism, salivation, diarrhea, vomiting, polyuria, anuria, and fecal change and the severity of these symptoms were evaluated once a day during the study period. • 2) Food consumption: Twice a week, the amount of consumed food and the remaining amount were checked per cage. • 3) Water consumption: Twice a week, the amount of consumed water and the remaining amount were checked per cage. • 4) Weight: Weights were measured twice a week until the end of the study. • 5) Urinalysis: Urine samples were collected during study period from 5 randomly selected rats per study subgroup and appearance, volume, and colors were recorded. Using urinalysis kits (N-multistix of Amersham), pH, gravity, leukocyte, protein, ketone body, urobilinogen, glucose and blood urea nitrogen were measured. • 6) Eye examination: Ophthalmoscopic examination of 5 randomly selected rats per study subgroup was performed to evaluate the external appearance, cornea, and:fundus of the eye. • 7) Hematological and biochemical analysis: Routine blood test was done to measure red blood cell count, white blood cell count, hemoglobin concentration, number of monocytes and lymphocytes, and blood coagulation time. Biochemical analysis of serum was done to measure the activity of […], aspartate transaminase, alkaline phosphate, and albumin. • 8) Size and weight of organs: For every animal studied, weight and size of major organs were measured relative to body weight. Measured organs included liver, kidney, spleen, heart, adrenal gland, brain, thyroid gland, ovary, and testis. • 9) Pathological examination: Organs were fixed in formalin after measurement of weight and size and fixed tissues were cut into […] slices using microtome (AO Rotate Microtome) and stained with hematoxylin and eosin for microscopic study.

B16-BL6 melanoma = assay: Neovascularization and tumor size after intradermal melanoma injection; format: in vivo, C57BL/6 mice; details: one milligram orally three days after tumor injection
Method: The in vivo mechanism of anticancer effect of HD-2 was studied in mice. After suspending 4×10^5 cells of B16-BL6 melanoma in 50% PBS, they were injected intradermally into 2 sites on the back of 6- to 7-week old C57BL/6 mice. Three days after the tumor injection, one milligram of HD-2 was given orally and size of inoculated melanoma and number of blood vessels at and around tumor sites were measured. Control group was treated with oral administration of PBS.

B16-BL6 melanoma cells = assay: Inhibitory effect of orally-administered HD-2 on cancer metastasis (lung); format: in vivo, mice
Source text: as §2

[4] = 1 μg intravenous administration +1
[5] = 10 μg intravenous administration +1
[6] = 10 μg intravenous administration +7
[7] = 100 μg intravenous administration +1

Question: Which “direct cytotoxicity, times as high as cisplatin” value [1] does the source give for `O1[As]2O[As]3O[As]1O[As](O2)O3` [HD-2, arsenic hexoxide (As4O6)] here?
Answer: Its value is 50 times.

Question: What about the “morphological observation of cells” value (3T3-fibroblast cells; 3T3, 34 hours of treatment) of the same compound?
Answer: The value was “complete necrosis of tumor cells”.

Question: And the “cytotoxicity, times as high as that of cisplatin” value (3T3-fibroblast cells; 3T3, 48 hours after administration)?
Answer: Its value is “about 270 times”.

Question: What about the “cytotoxic effect over time (FIG. 3)” value (3T3-fibroblast cells; 3T3, time course after the addition, XTT) of the same compound?
Answer: Its value is “demonstrated cytotoxic effect starting from 4 hours”.

Question: What about the inhibitory rate [2, 4] of the same compound?
Answer: Its inhibitory rate is 66.5%.

Question: And the “number of metastatic mass, mean ± SD” value [2, 4]?
Answer: Its value is 52 ± 28.

Question: What about the inhibitory rate [2, 5] of the same compound?
Answer: Its inhibitory rate is 92.9%.

Question: What about the “number of metastatic mass, mean ± SD” value [2, 5] of the same compound?
Answer: Its value is 11 ± 19.

Question: And the inhibitory rate [2, 6]?
Answer: The inhibitory rate was 67.5%.

Question: And the “number of metastatic mass, mean ± SD” value [2, 6]?
Answer: Its value is 50 ± 11.

Question: What about the inhibitory rate [2, 7] of the same compound?
Answer: Its inhibitory rate is 90.3%.

Question: And the “number of metastatic mass, mean ± SD” value [2, 7]?
Answer: Its value is 15 ± 15.

Question: And the anti-metastatic efficacy ([2]; 10- to 100-μg intravenous)?
Answer: Its anti-metastatic efficacy is “above 90%”.

Question: And the ALT ([3]; High 100 mg/kg/day oral)?
Answer: Its ALT is 29.67 μ/l.

Question: And the ALB ([3]; High 3.0 g/kg/day oral)?
Answer: Its ALB is 3.33 g/dL.

Question: What about the AST ([3]; High 3.0 g/kg/day oral) of the same compound?
Answer: Its AST is 77.87* μ/l.

Question: And the BUN ([3]; High 3.0 g/kg/day oral)?
Answer: Its BUN is 13.13 mg/dL.

Question: What about the CHOL ([3]; High 3.0 g/kg/day oral) of the same compound?
Answer: Its CHOL is 44.33 mg/dL.

Question: What about the CREAT ([3]; High 3.0 g/kg/day oral) of the same compound?
Answer: The CREAT was 0.47 mg/dL.

Question: And the Ca ([3]; High 3.0 g/kg/day oral)?
Answer: Its Ca is 8.73 mg/dL.

Question: What about the GLU ([3]; High 3.0 g/kg/day oral) of the same compound?
Answer: Its GLU is 63.03 mg/dL.

Question: What about the TB ([3]; High 3.0 g/kg/day oral) of the same compound?
Answer: Its TB is 0.18 mg/dL.

Question: What about the TG ([3]; High 3.0 g/kg/day oral) of the same compound?
Answer: Its TG is 62.33 mg/dL.

Question: What about the TP ([3]; High 3.0 g/kg/day oral) of the same compound?
Answer: Its TP is 5.93 g/dL.

Question: And the ALB ([3]; Low 0.03 g/kg/day oral)?
Answer: Its ALB is 3.60 g/dL.

Question: What about the ALT ([3]; Low 0.03 g/kg/day oral) of the same compound?
Answer: Its ALT is 27.10 μ/l.

Question: And the AST ([3]; Low 0.03 g/kg/day oral)?
Answer: The AST was 70.10* μ/l.

Question: What about the BUN ([3]; Low 0.03 g/kg/day oral) of the same compound?
Answer: The BUN was 11.43 mg/dL.

Question: And the CHOL ([3]; Low 0.03 g/kg/day oral)?
Answer: The CHOL was 42.33 mg/dL.

Question: And the CREAT ([3]; Low 0.03 g/kg/day oral)?
Answer: Its CREAT is 0.40 mg/dL.

Question: And the Ca ([3]; Low 0.03 g/kg/day oral)?
Answer: Its Ca is 8.77 mg/dL.

Question: And the GLU ([3]; Low 0.03 g/kg/day oral)?
Answer: Its GLU is 67.70 mg/dL.

Question: What about the TB ([3]; Low 0.03 g/kg/day oral) of the same compound?
Answer: The TB was 0.14 mg/dL.

Question: And the TG ([3]; Low 0.03 g/kg/day oral)?
Answer: The TG was 50.00 mg/dL.

Question: What about the TP ([3]; Low 0.03 g/kg/day oral) of the same compound?
Answer: Its TP is 6.27 g/dL.

Question: And the ALB ([3]; Medium 0.3 g/kg/day oral)?
Answer: The ALB was 3.70 g/dL.

Question: What about the ALT ([3]; Medium 0.3 g/kg/day oral) of the same compound?
Answer: Its ALT is 27.00 μ/l.

Question: And the AST ([3]; Medium 0.3 g/kg/day oral)?
Answer: The AST was 87.53 μ/l.

Question: And the BUN ([3]; Medium 0.3 g/kg/day oral)?
Answer: The BUN was 13.18 mg/dL.

Question: What about the CHOL ([3]; Medium 0.3 g/kg/day oral) of the same compound?
Answer: The CHOL was 40.50 mg/dL.

Question: What about the CREAT ([3]; Medium 0.3 g/kg/day oral) of the same compound?
Answer: Its CREAT is 0.53 mg/dL.

Question: What about the Ca ([3]; Medium 0.3 g/kg/day oral) of the same compound?
Answer: Its Ca is 8.95 mg/dL.

Question: What about the GLU ([3]; Medium 0.3 g/kg/day oral) of the same compound?
Answer: Its GLU is 70.00 mg/dL.

Question: What about the TB ([3]; Medium 0.3 g/kg/day oral) of the same compound?
Answer: Its TB is 0.16 mg/dL.

Question: What about the TG ([3]; Medium 0.3 g/kg/day oral) of the same compound?
Answer: Its TG is 56.25 mg/dL.

Question: And the TP ([3]; Medium 0.3 g/kg/day oral)?
Answer: Its TP is 6.53 g/dL.

Question: What about the “kidney pathology: hemosiderin in and atrophy of proximal tubular epithelium” value ([3]; high-dose group (100 mg/kg body weight), 4 weeks) of the same compound?
Answer: Its value is “observed to a slight degree”.

Question: What about the kidney pathology ([3]; medium-dose group, 4 weeks) of the same compound?
Answer: Its kidney pathology is “no such pathology was observed”.

Question: What about the “Hematological and biochemical study vs control groups” value ([3]; oral, once a day for 4 weeks) of the same compound?
Answer: Its value is “did not reveal any significant difference”.

Question: What about the “clinical symptoms incl. changes in weight and consumption of food and water” value ([3]; oral, once a day for 4 weeks) of the same compound?
Answer: The value was “no specific clinical symptom”.

Question: And the “urinalysis and eye examination” value ([3]; oral, once a day for 4 weeks)?
Answer: Its value is “any significant abnormality was not observed”.

Question: And the fatal cases ([3]; oral, once a day for 4 weeks, 1, 10, 100 mg per kg body weight)?
Answer: Its fatal cases is “fatal cases were not observed”.

Question: And the “size of solid tumor mass” value (B16-BL6 melanoma)?
Answer: The value was “decreased significantly”.

Question: What about the “number of new blood vessels at and around tumor sites” value (B16-BL6 melanoma; FIG. 5) of the same compound?
Answer: The value was “tended to decrease”.

Question: And the inhibitory rate (B16-BL6 melanoma cells; 0.1 mg oral administration +1)?
Answer: Its inhibitory rate is 38.5%.

Question: And the “number of metastatic masses, mean ±SD” value (B16-BL6 melanoma cells; 0.1 mg oral administration +1)?
Answer: Its value is 75 ± 28.

Question: What about the inhibitory rate (B16-BL6 melanoma cells; 0.1 mg oral administration +7) of the same compound?
Answer: Its inhibitory rate is 41.4%.

Question: And the “number of metastatic masses, mean ±SD” value (B16-BL6 melanoma cells; 0.1 mg oral administration +7)?
Answer: The value was 95 ± 23.

Question: What about the inhibitory rate (B16-BL6 melanoma cells; 1 mg oral administration +1) of the same compound?
Answer: The inhibitory rate was 86% and 86.1%.

Question: And the “number of metastatic masses, mean ±SD” value (B16-BL6 melanoma cells; 1 mg oral administration +1)?
Answer: The value was 17 ± 9.

Question: What about the inhibitory rate (B16-BL6 melanoma cells; 1 mg oral administration +7) of the same compound?
Answer: The inhibitory rate was 70% and 70.4%.

Question: And the “number of metastatic masses, mean ±SD” value (B16-BL6 melanoma cells; 1 mg oral administration +7)?
Answer: Its value is 48 ± 19.

Question: What about the inhibitory rate (B16-BL6 melanoma cells; 10 mg oral administration +1) of the same compound?
Answer: The inhibitory rate was 63.1%.

Question: And the inhibitory rate (B16-BL6 melanoma cells; 10 mg oral administration +7)?
Answer: Its inhibitory rate is 66.1%.

Question: What about the “number of metastatic masses, mean ±SD” value (B16-BL6 melanoma cells; 10 mg oral administration +7) of the same compound?
Answer: The value was 55 ± 13.

Question: What about the “number of metastatic masses, mean ±SD” value (B16-BL6 melanoma cells; 10 mg oral administration +1 day after inoculation) of the same compound?
Answer: Its value is 45 ± 25.

Question: What about the “anti-metastatic effect compared to the control group” value (B16-BL6 melanoma cells; oral administration, 0.1 to 10 mg) of the same compound?
Answer: The value was “significant anti-metastatic effect”.
